Earlier results as cited in patent publication US9408814B2, “Modified release dosage form comprising desvenlafaxine or salts thereof” (WOCKHARDT LIMITED, priority 2010, dated 2016).
Like-named read-outs stand apart in the source and are kept apart here.

How the values were obtained:
[1] = not given; remark: listed apart in the source
[2] = at pH 7.0

| Compound | pKa (dimethylamino group) | pKa (phenolic group) | pH dependence of solubility ([1]; solubility increases at lower pH) | solubility in water ([1]; water) | octanol:aqueous system partition coefficient [2] | solubility at gastric pH ([1]; gastric pH) | solubility at intestinal pH ([1]; intestinal pH) |
| --- | --- | --- | --- | --- | --- | --- | --- |
| CN(C)CC(c1ccc(O)cc1)C1(O)CCCCC1 (stereo not shown) [Desvenlafaxine succinate] | 8.34 | 10.11 | pH dependent | soluble in water | 0.21 | – | – |
| CN(C)CC(c1ccc(O)cc1)C1(O)CCCCC1.O=C(O)CCC(=O)O (stereo not shown) [Desvenlafaxine, RS-4-[2-dimethylamino-1-(1-hydroxycyclohexyl)ethyl]phenol] | – | – | – | – | – | relatively good solubility | poor solubility |
